Data published in paper PMC12691611, “Aromatic residue Trp146 mediates dynamic interplay between type IVa pili and exopolysaccharide in social motility of Myxococcus xanthus” (mBio, 2025).
“Also recorded” adds a separate entry of the source.

How the values were obtained:
[1] = target: T1, PilACt (Myxococcus xanthus, UniProt Q59589); assay: Isothermal titration calorimetry (ITC), carbohydrates titrated into PilACt; format: binding
T1 construct: a truncated variant (PilACt) spanning residues 32–208; His tag; made in house; host or cells: E. coli BL21 (DE3)
Procedure: (§1) ITC power compensation analyses ([50]) confirmed negligible enthalpy changes during titrations, ruling out nonspecific binding events (Fig. S3B and S4B). […] Given the presence of ManNAc in M. xanthus EPS, we further analyzed its deacetylated derivative, mannosamine (ManN).
The calorimetric data for the binding of PilACt and its mutants to carbohydrates were measured at 25°C using a MicroCal PEAQ-ITC system (Malvern Instruments, United Kingdom). The carbohydrates, PilACt, and its mutants were dissolved in the PBS buffer. A 300 µL aliquot of protein solution was placed in the sample cell, followed by 19 sequential 2 µL injections of carbohydrates from a syringe stock solution into the sample cell. The injection interval was 150 s, and the agitation speed was set at 750 rpm. A control titration, in which carbohydrates were injected into PBS buffer under the same conditions, was performed to measure the heat of mixing and dilutions, which was then subtracted from the titration results involving the protein. Raw data were imported into MicroCal PEAQ-ITC analysis software (Version 1.1.01262) and corrected by subtracting the equivalent dilution heats of control titration. Integration of the area under each, along with deduction of the heat of dilution, yielded a thermogram of the molecular interaction between carbohydrates and PilACt or its mutants.

[2] = target: T2, PilACt (truncated PilA, residues 32–208) (Myxococcus xanthus, UniProt Q59589); assay: Surface plasmon resonance (SPR, Biacore T200), carbohydrates over immobilized PilACt; format: binding; details: for Kd: KD (SPR, PilACt)
T2 construct: a truncated variant (PilACt) spanning residues 32–208; His tag; made in house; host or cells: E. coli BL21 (DE3)
Description: We therefore employed surface plasmon resonance (SPR) on a Biacore system to quantitatively evaluate EPS-PilA binding ([48]), using immobilized PilACt as the ligand. […] Due to the insoluble nature of I-EPS and the risk of clogging the microfluidic channels, it was excluded from further SPR analyses.
as §1
The binding affinity of carbohydrates to PilACt and its mutants was determined by SPR measurements at 25°C using Biacore T200 (Cytiva, USA) in PBS buffer. The purified PilACt or its mutants (10 µg/mL in 10 mM sodium acetate, pH 4.5) were immobilized on the CM5 chips (Cytiva, USA) via amine coupling. Unreacted sites were blocked with 1.0 M ethanolamine-HCl (pH 8.5). Flow path 1 or path 3 was used as an activated blank control for subtraction. In all interaction experiments, analytes were injected at a flow rate of 30 µL/min for 180 s, with gradient concentrations programmed from low to high. After injection, dissociation was allowed to occur with the buffer flow for 300 s to facilitate chip regeneration. The resulting curves were corrected and fitted to the steady-state model using Biacore evaluation software (version 3.0, Cytiva, USA) to determine the dissociation constant (KD) values.

[3] = test system: M. xanthus DK1622 cells; design: method as in PMID 12704238; details: DK1622 cells ref 15; cited from earlier work
[4] = Zeta potential measurement; format: physicochemical
Procedure: GlcN and PilACt were diluted in PBS buffer, and the solutions were adjusted to a suitable pH (6, 7.6, and 9) using either HCl or NaOH. The zeta (ζ) potential of GlcN (0.5 mg/mL) and PilACt (1 mg/mL) solutions was measured using UV-grade cuvettes with a Zetasizer NanoZS90 (Malvern Instruments, United Kingdom). For each measurement, 1 mL of the sample was injected into a folded capillary cell. All experiments were conducted in triplicate.

[5] = amine group of GlcN; no reference given; cited from earlier work
[6] = target: T3, PilACt-W181A (Myxococcus xanthus, UniProt Q59589, W181A); assay: SPR, carbohydrates over immobilized PilACt-W181A; format: binding
T3 construct: a truncated variant (PilACt) spanning residues 32–208; His tag; made in house; host or cells: E. coli BL21 (DE3)
Description: (§2) To functionally validate the role of W146, a W146A substitution mutant (PilA-W146A) was generated through AlphaFold2-based structural modeling of PilA (Fig. 4A). Structural alignment confirmed the mutant retained a tertiary structure indistinguishable from wild-type PilA (WT PilA; Fig. 4B), indicating the W146A substitution caused no global structural perturbations. […] However, the mutation induced localized instability, manifested by premature GlcN dissociation (4 ns) and excessive ligand RMSD fluctuations (>6 nm; Fig. 4C and D; Movie S4). […] To quantify binding effects, a single-residue PilACt variant (PilACt-W146A) was analyzed for EPS/GlcN affinity. […] To assess broader aromatic residue contributions, four additional PilA aromatic residues (Y69, W181, F164, and F186) were individually substituted with alanine. The PilACt-F164A mutant underwent intracellular degradation, likely due to structural instability, precluding heterologous expression.
(§3) The binding affinity of carbohydrates to PilACt and its mutants was determined by SPR measurements at 25°C using Biacore T200 (Cytiva, USA) in PBS buffer. […]
(§4) Fig S11. […] The binding affinity of single-residue variants PilACt-Y69A, PilACt-W181A, and PilACt-F186A to S-EPS (A) and GlcN (B) was evaluated by SPR analysis. Representative sensorgram and calculated KD values are shown. […]

[7] = target: T4, PilACt-W146A (Myxococcus xanthus, UniProt Q59589, W146A); assay: SPR, carbohydrates over immobilized PilACt-W146A; format: binding; details: 25°C, PBS
T4 construct: a truncated variant (PilACt) spanning residues 32–208; His tag; made in house; host or cells: E. coli BL21 (DE3)
Description: as §2
The binding affinity of carbohydrates to PilACt and its mutants was determined by SPR measurements at 25°C using Biacore T200 (Cytiva, USA) in PBS buffer. The purified PilACt or its mutants (10 µg/mL in 10 mM sodium acetate, pH 4.5) were immobilized on the CM5 chips (Cytiva, USA) via amine coupling. Unreacted sites were blocked with 1.0 M ethanolamine-HCl (pH 8.5). Flow path 1 or path 3 was used as an activated blank control for subtraction. […]

[8] = target: T5, PilACt-Y69A (Myxococcus xanthus, UniProt Q59589, Y69A); assay: SPR, carbohydrates over immobilized PilACt-Y69A; format: binding
T5 construct: a truncated variant (PilACt) spanning residues 32–208; His tag; made in house; host or cells: E. coli BL21 (DE3)
Description: as §2, §3, §4

[9] = target: T6, PilACt-F186A (Myxococcus xanthus, UniProt Q59589, F186A); assay: SPR, carbohydrates over immobilized PilACt-F186A; format: binding
T6 construct: a truncated variant (PilACt) spanning residues 32–208; His tag; made in house; host or cells: E. coli (BL21 (DE3) is named only for the other PilACt variants)
Description: as §2, §3, §4

T2 sequence (Q59589 44-220): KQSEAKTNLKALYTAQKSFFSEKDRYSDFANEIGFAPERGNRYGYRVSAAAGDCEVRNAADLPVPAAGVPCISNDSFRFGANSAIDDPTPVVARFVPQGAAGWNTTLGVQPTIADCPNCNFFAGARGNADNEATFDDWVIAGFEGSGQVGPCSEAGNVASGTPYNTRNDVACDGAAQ
T1 sequence (Q59589 44-220): as above
T4 sequence (Q59589 44-220 W146A): as the sequence (Q59589 44-220) above, with W103A counted along it
T3 sequence (Q59589 44-220 W181A): as the sequence (Q59589 44-220) above, with W138A counted along it
T5 sequence (Q59589 44-220 Y69A): as the sequence (Q59589 44-220) above, with Y26A counted along it
T6 sequence (Q59589 44-220 F186A): as the sequence (Q59589 44-220) above, with F143A counted along it

| SMILES | binding to PilACt by ITC ([1]; 25°C, PBS) | binding to PilACt by SPR ([2]; tested concentrations 31.25–1,000 µM) | piliation phenotype (surface pili) [3] | zeta potential ([4]; pH 6, PBS) | zeta potential ([4]; pH 7.6, PBS) | Kd [1] | stoichiometry n (ITC) ([1]; 25°C, PBS, pH 7.6) | pKa [5] | binding affinity relative to WT PilACt (SPR) [6] | binding to PilACt-W146A by SPR [7] | Kd ([2]; pH 9) | Kd ([2]; steady-state fit, 25°C, PBS buffer, pH 7.6) | binding affinity relative to WT PilACt (SPR) [8] | binding affinity relative to WT PilACt (SPR) [9] |
| --- | --- | --- | --- | --- | --- | --- | --- | --- | --- | --- | --- | --- | --- | --- |
| CC(=O)N[C@@H]1[C@@H](O)[C@H](O)[C@@H](CO)O[C@H]1O [GlcNAc, N-acetyl-glucosamine] | undetectable | undetectable | hyperpiliation | – | – | – | – | – | – | – | – | – | – | – |
| N[C@H]1C(O)O[C@H](CO)[C@@H](O)[C@@H]1O (stereo partly drawn) [GlcN, glucosamine] | – | – | hyperpiliation | +2.43 mV | 1.09 mV | 300 µM | 1.47 | ~ 7.58 | indistinguishable from WT | undetectable; also recorded: No binding | 87 µM | 203 µM | indistinguishable from WT | indistinguishable from WT |
